Source: ChEMBL document CHEMBL1201862, “PubChem BioAssay data set” (2004)
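Five concentrations, 48 hours, 96-well plates. GI50 marks 50% less growth.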 Calls of active or inactive are those of the source. Rule as the data show it: active = GI50 up to about 1.1 µM and inactive = higher.

Key:
Assay in all cases: DTP human tumour cell line panel, 48 h
HOP-62 = system: HOP-62
HCC 2998 = system: HCC 2998
MDA-MB-231 = system: MDA-MB-231
OVCAR-8 = system: OVCAR-8
T47D = system: T47D
SW-620 = system: SW-620
MDA-MB-435 = system: MDA-MB-435
OVCAR-3 = system: OVCAR-3
SF-295 = system: SF-295
UO-31 = system: UO-31
NCI-H522 = system: NCI-H522
CCRF-CEM = system: CCRF-CEM
IGROV-1 = system: IGROV-1
OVCAR-4 = system: OVCAR-4
CAKI-1 = system: CAKI-1
LOX IMVI = system: LOX IMVI
COLO 205 = system: COLO 205
HL-60 = system: HL-60
M14 = system: M14
U-251 = system: U-251

Structure (SMILES) | GI50 (HOP-62) | GI50 (HCC 2998) | GI50 (MDA-MB-231) | GI50 (OVCAR-8) | GI50 (T47D) | GI50 (SW-620) | GI50 (MDA-MB-435) | GI50 (OVCAR-3) | GI50 (SF-295) | GI50 (UO-31) | GI50 (NCI-H522) | GI50 (CCRF-CEM) | GI50 (IGROV-1) | GI50 (OVCAR-4) | GI50 (CAKI-1) | GI50 (LOX IMVI) | GI50 (COLO 205) | GI50 (HL-60) | GI50 (M14) | GI50 (U-251)
C=C(C)[C@@H](O)[C@H](O)C[C@H](C)C1CC[C@]2(C)C1=CC[C@@H]1[C@@]3(C)CC[C@@H](OC(C)=O)C(C)(C)[C@@H]3C[C@@H](OC3OC(COC(C)=O)C(O)C(O)C3O)[C@]12C (stereo not given in full) | 2.99 µM (inactive) | 0.354 µM (active) | 2.21 µM (inactive) | 4.04 µM (inactive) | 2.48 µM (inactive) | 3.34 µM (inactive) | 2 µM (inactive) | 2.17 µM (inactive) | 2.16 µM (inactive) | 3.48 µM (inactive) | 1.67 µM (inactive) | 2.29 µM (inactive) | 2.4 µM (inactive) | 2.96 µM (inactive) | 3.52 µM (inactive) | 1.73 µM (inactive) | 1.93 µM (inactive) | 2.05 µM (inactive) | 2.72 µM (inactive) | 2.32 µM (inactive)
O=C(O)c1ccccc1/C=N\N=C1NCCN1 | > 100 µM (inactive) | > 100 µM (inactive) | > 100 µM (inactive) | > 100 µM (inactive) | > 100 µM (inactive) | > 100 µM (inactive) | > 100 µM (inactive) | > 100 µM (inactive) | > 100 µM (inactive) | 40.9 µM (inactive) | > 100 µM (inactive) | > 100 µM (inactive) | > 100 µM (inactive) | > 100 µM (inactive) | > 100 µM (inactive) | > 100 µM (inactive) | > 100 µM (inactive) | > 100 µM (inactive) | > 100 µM (inactive) | > 100 µM (inactive)
Cc1ccc2c(c1)C(=O)c1[nH]c3ccc(F)cc3c1CO2 | 10.1 µM (inactive) | > 100 µM (inactive) | > 100 µM (inactive) | 15.8 µM (inactive) | 21.3 µM (inactive) | 24.4 µM (inactive) | 58.9 µM (inactive) | 36.6 µM (inactive) | 11.4 µM (inactive) | > 100 µM (inactive) | 36.6 µM (inactive) | > 100 µM (inactive) | 30.3 µM (inactive) | 15.3 µM (inactive) | 27.5 µM (inactive) | 21.5 µM (inactive) | > 100 µM (inactive) | > 100 µM (inactive) | 18.8 µM (inactive) | 18.5 µM (inactive)
O=[N+]([O-])c1ccc2[nH]nc(OCc3ccccc3Cl)c2c1 | 37.8 µM (inactive) | 59.6 µM (inactive) | > 100 µM (inactive) | 27 µM (inactive) | 15 µM (inactive) | > 10 µM (inactive) | > 100 µM (inactive) | 23.4 µM (inactive) | 42.6 µM (inactive) | > 10 µM (inactive) | 17.1 µM (inactive) | > 100 µM (inactive) | 91.2 µM (inactive) | 41.3 µM (inactive) | 50.4 µM (inactive) | 28.6 µM (inactive) | > 100 µM (inactive) | > 100 µM (inactive) | > 100 µM (inactive) | 28.3 µM (inactive)
C/C(=N\NC(N)=S)c1sc(-n2nc(-c3ccccc3)cc2-c2ccccc2)nc1C | > 100 µM (inactive) | > 100 µM (inactive) | 43.3 µM (inactive) | > 100 µM (inactive) | 23.2 µM (inactive) | > 100 µM (inactive) | > 100 µM (inactive) | 98.2 µM (inactive) | > 100 µM (inactive) | 69.7 µM (inactive) | 79.4 µM (inactive) | 36.5 µM (inactive) | 16 µM (inactive) | 74.6 µM (inactive) | > 100 µM (inactive) | 71.9 µM (inactive) | > 100 µM (inactive) | 54.6 µM (inactive) | > 100 µM (inactive) | > 100 µM (inactive)
